Assay results reported in ChEMBL document CHEMBL4251697 (ACS Med Chem Lett, 2018).
pIC50: −log10 of the molar value. ≈ marks a conversion by molar mass, not a printed value.

Legend:
[1] = Aqueous equilibrium solubility of compound in pH 6.8 phosphate buffer solution incubated overnight by shake flask based high throughput assay; type: physicochemical
[2] = Thermodynamic solubility of compound in pH 6.8 phosphate buffer solution incubated overnight on shaker by shake flask based HPLC analysis; type: physicochemical; details: read-out: Therm_solubility
[3] = target: Fibroblast growth factor receptor 4 (Homo sapiens, UniProt P22455)
Sequence of Fibroblast growth factor receptor 4 (P22455 whole entry): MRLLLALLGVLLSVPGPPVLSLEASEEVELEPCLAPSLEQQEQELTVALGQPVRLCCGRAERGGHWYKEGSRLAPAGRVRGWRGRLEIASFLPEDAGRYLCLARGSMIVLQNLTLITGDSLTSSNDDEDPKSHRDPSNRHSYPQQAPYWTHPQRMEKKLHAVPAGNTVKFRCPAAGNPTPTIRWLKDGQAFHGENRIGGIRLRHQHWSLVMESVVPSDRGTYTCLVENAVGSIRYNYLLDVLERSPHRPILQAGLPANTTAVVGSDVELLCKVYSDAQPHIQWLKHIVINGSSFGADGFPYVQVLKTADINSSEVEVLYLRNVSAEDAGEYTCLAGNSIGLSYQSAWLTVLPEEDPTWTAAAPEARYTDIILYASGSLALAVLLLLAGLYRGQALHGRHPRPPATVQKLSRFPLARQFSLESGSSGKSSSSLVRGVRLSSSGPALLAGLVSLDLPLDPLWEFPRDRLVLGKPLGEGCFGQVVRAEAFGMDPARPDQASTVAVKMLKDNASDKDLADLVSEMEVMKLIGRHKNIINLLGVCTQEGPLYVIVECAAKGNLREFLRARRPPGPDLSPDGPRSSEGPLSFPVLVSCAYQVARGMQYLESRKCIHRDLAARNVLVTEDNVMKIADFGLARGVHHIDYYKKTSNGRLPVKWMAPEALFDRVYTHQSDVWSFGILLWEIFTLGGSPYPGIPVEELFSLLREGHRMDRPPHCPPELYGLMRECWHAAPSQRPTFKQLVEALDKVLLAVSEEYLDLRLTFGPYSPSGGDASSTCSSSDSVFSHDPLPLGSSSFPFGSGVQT

Row | Structure (SMILES) | solubility thermodynamic [1] [µM] | solubility thermodynamic [2] [µM] | pIC50 [3]
1 | O=Cc1ccc2c(n1)N(C(=O)Nc1ccc(C(F)(F)F)cn1)CCC2 | < 4 | 4.9 (≈ 1.72 µg/mL) | 
2 | CN(C(=O)N1CCCc2ccc(C=O)nc21)c1ccc(C(F)(F)F)cn1 |  |  | < 5.00
3 | CN(C)CCOc1cc(NC(=O)N2CCCc3ccc(C=O)nc32)ncc1C#N | 300 (≈ 118 µg/mL) |  | 

Continued, values first:

Row | solubility thermodynamic [1] [µM] | solubility thermodynamic [2] [µM] | pIC50 [3] | Structure (SMILES)
4 | > 1000 |  |  | COCCNc1cc(NC(=O)N(CCOC)c2cccc(C=O)n2)ncc1C#N
5 | < 4 | < 2.9 |  | O=Cc1ccc2cccc(C(=O)Nc3ccc(C(F)(F)F)cn3)c2n1
6 |  |  | < 5.00 | N#Cc1ccc(NC(=O)N2CCCc3ccc(CO)nc32)nc1
7 | 173 (≈ 63.4 µg/mL) |  |  | CN(C)CCOc1cc(NC(=O)N2CCCc3cccnc32)ncc1C#N
